Literature values, collected in US20230201166A1, “METHODS FOR TREATING CANCER BY INHIBITING CARM1” (DANA-FARBER CANCER INSTITUTE, INC., priority 2020, published 2023).
Read-outs that look alike come from different tables or passages of the source.

Legend:
[1] = biological target: T1, CARM1 (Homo sapiens, UniProt Q86X55); conditions: read-out: CARM1 ICW IC50; cited from earlier work
T1 sequence (Q86X55 1-608): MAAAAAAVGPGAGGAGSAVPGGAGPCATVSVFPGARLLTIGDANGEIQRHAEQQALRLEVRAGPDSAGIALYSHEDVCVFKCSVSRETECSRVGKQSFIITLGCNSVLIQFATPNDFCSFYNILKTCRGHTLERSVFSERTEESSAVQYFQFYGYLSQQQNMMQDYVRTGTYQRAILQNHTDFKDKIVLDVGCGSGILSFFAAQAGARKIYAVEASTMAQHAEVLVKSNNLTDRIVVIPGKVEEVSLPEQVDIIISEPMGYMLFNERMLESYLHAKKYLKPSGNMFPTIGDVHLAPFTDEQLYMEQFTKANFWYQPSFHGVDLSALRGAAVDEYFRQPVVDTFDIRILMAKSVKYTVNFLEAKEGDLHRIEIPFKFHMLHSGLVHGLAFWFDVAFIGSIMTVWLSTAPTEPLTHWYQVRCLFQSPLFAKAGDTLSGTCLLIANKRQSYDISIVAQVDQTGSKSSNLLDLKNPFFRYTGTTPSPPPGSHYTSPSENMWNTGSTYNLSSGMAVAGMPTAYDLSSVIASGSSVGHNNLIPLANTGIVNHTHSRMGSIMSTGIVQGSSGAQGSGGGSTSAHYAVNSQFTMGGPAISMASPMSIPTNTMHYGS

[2] = biological target: T1, CARM1; conditions: read-out: CARM1 Biochemical IC50; cited from earlier work

Question: For `CNC[C@@H](O)COc1ccc(Cl)c(-c2nc(-c3c(C)noc3C)c(C)c(N3Cc4cnc(N5CCC5)nc4C3)n2)c1` [EPZ025654], which IC50 [1] is on record?
Answer: 0.011 µM

Question: For `Cn1cnc2ccc(-c3cccc(OCC(O)CN)c3)nc21` (centres unmarked) [compound 1], which IC50 [1] is on record?
Answer: > 20 µM

Question: Which IC50 [1] does the source give for `CC(C)n1ncc2c(N3CCOCC3)cc(-c3cccc(OCC(O)CN)c3)nc21` (centres unmarked) [compound 2] here?
Answer: 19 µM

Question: With `CNC[C@@H](O)COc1cc(-c2nc(-c3c(C)noc3C)c(C)c(N3CC4(CCN(C(=O)OC)CC4)C3)n2)ccc1Cl` [compound 3] as the compound, how does the IC50 [1] read?
Answer: > 6.5 µM

Question: What about the IC50 [2] of the same compound?
Answer: > 1 µM
